According to patent US5082845A, “Therapeutic xanthine derivatives for the treatment of peptic ulcer disease” (Hoechst Japan Limited, priority 1988, dated 1992):

Experiments:
[1] = in vivo; conditions: mouse, in vivo, mice
Method: (§1) LD50 values of the compounds of this invention were determined after intravenous injection or intraperitoneal administration to mice for acute toxicity test. The studies were carried out using male and female NMRI mice (n=3/group) having a body weight between 19-21 g.

[2] = test system: stress-induced gastric ulcer in rats; test: Protective effect on gastric ulcer induced by restraint plus water-immersion stress in rats; type: in vivo, male Sprague-Dawley rats; conditions: 10 mg/kg po; for Ulcer index: mean ± S.E.; for inhibition in vivo at 10 mg/kg: Rattus norvegicus, stress-induced ulcer
Method: 1.1 Protective Effect on Gastric Ulcer Induced by Restraint Plus Water-Immersion Stress in Rats
Male Sprague-Dawley rats weighing 250-300 g were used in groups of 5-34. The animals were given the compounds by the oral route after fasting overnight. Immediately, under light ether anesthesia they were placed in a restraint box and immersed in water at 20° C. for 6 or 7 hours. Then the animals were sacrificed, and their stomachs were isolated, inflated with 4 ml of 1% formalin for 10 minutes, opened along the greater curvature, and examined for the presence of gastric erosions. The longest axis of each erosion induced on the glandular section of the stomach was measured, and the sum of the lengths was defined as an ulcer index.

[3] = test system: ethanol-induced gastric ulcer in rats; test: Protective effect on ethanol-induced gastric ulcer in rats; type: in vivo, male Sprague-Dawley rats; conditions: 10 mg/kg po; for Ulcer index: mean ± S.E.; for inhibition in vivo at 10 mg/kg: Rattus norvegicus
Method: 1.2 Protective Effect on Ethanol-Induced Gastric Ulcer in Rats
Male Sprague-Dawley rats weighing 250-300 g were used in groups of 5-24. After fasting overnight, the animals were given orally the compounds. Thirty minutes later they received absolute ethanol (1 ml/body) orally and were sacrificed after 60 minutes. The stomach was removed and examined for erosions. The ulcer index was obtained in the same way as under 1.1.

[4] = test system: peptic ulcer disease; conditions: Ter. Arkh. 57, 52-55, 1985; cited from earlier work
[5] = test system: mice; test: in vivo; conditions: acute
Method: as §1

[6] = series with control (distilled water) 19.7 ± 2.9 mm
[7] = series with control 19.7 ± 2.9 mm
[8] = series with control (distilled water) 26.2 ± 1.6 mm
[9] = series with control 26.2 ± 1.6 mm
[10] = series with control (distilled water) 111.6 ± 10.4 mm
[11] = series with control 111.6 ± 10.4 mm
[12] = series with control (distilled water) 164.7 ± 19.4 mm
[13] = series with control 164.7 ± 19.4 mm
[14] = ip, intraperitoneal administration, 7 days (footnote b)
[15] = series with control (10% EtOH) 118.8 ± 9.6 mm

| SMILES | LD50 at 168 h ([1]; intravenous, n=3/group, 7 days) [mg/kg] | Ulcer index [2, 6] [mm] | inhibition in vivo at 10 mg/kg [2, 7] [%] | Ulcer index [2, 8] [mm] | inhibition in vivo at 10 mg/kg [2, 9] [%] | other results |
| --- | --- | --- | --- | --- | --- | --- |
| CC(=O)CCCCn1cnc2c1c(=O)n(CC(C)=O)c(=O)n2C [Compound 24, 3-Methyl-7-(5-oxohexyl)-1-(2-oxopropyl)-xanthine] | > 200 | 10.3 ± 3.5 | 47.7 |  |  |  |
| CCn1c(=O)n(CC(C)=O)c(=O)c2c1ncn2CCCCC(O)CO (stereo not shown) [Compound 7, 3-Ethyl-7-(5,6-dihydroxyhexyl)-1-(2-oxopropyl)-xanthine] | > 200 |  |  | 20.4 ± 4.1 | 21.9 |  |
| CCn1c(=O)n(C(C)C)c(=O)c2c1ncn2CCCCC(O)CO (stereo not shown) [Compound 2] |  |  |  | 11.5 ± 2.1 | 56 | Ulcer index [3, 10]: 6.7 ± 2.8 mm; inhibition in vivo at 10 mg/kg [3, 11]: 94% |
| CCCCn1c(=O)c2c(ncn2CCCCC(O)CO)n(CC)c1=O (stereo not shown) [Compound 3] |  | 6.0 ± 1.9 | 69.6 |  |  | Ulcer index [3, 12]: 5.3 ± 3.3 mm; inhibition in vivo at 10 mg/kg [3, 13]: 96.8% |
| CCCCCn1c(=O)c2c(ncn2CCCCC(O)CO)n(CC)c1=O (stereo not shown) [Compound 4] | > 200 |  |  | 9.2 ± 1.9 | 64.7 | Ulcer index [3, 10]: 15.6 ± 5.8 mm; inhibition in vivo at 10 mg/kg [3, 11]: 86% |
| C=CCn1c(=O)c2c(ncn2CCCCC(C)O)n(C)c1=O (stereo not shown) [Compound 18, 1-Allyl-7-(5-hydroxyhexyl)-3-methylxanthine] |  | 15.3 ± 2.1 | 22.3 |  |  | LD50 at 168 h [1, 14]: 250 to 500 mg/kg |
| CCn1c(=O)n(CC(C)C)c(=O)c2c1ncn2CCCCC(O)CO (stereo not shown) [Compound 5] | > 200 |  |  | 7.1 ± 1.8 | 72.9 |  |
| CCCCn1c(=O)c2c(ncn2CCCCC(O)CO)n(C)c1=O (stereo not shown) [Compound 10] |  |  |  | 4.5 ± 1.4 | 82.8 | Ulcer index [3, 10]: 1.1 ± 0.5 mm; inhibition in vivo at 10 mg/kg [3, 11]: 99% |
| CCCn1c(=O)n(CCCCC(C)=O)c(=O)c2c1ncn2CCCCC(O)CO (stereo not shown) [Compound 9, 7-(5,6-Dihydroxyhexyl)-1-(5-oxohexyl)-3-n-propylxanthine] | > 200 |  |  | 20.2 ± 5.8 | 22.9 |  |
| CCCCn1c(=O)c2c(ncn2CCCCC(C)O)n(C)c1=O (stereo not shown) [Compound 16] | 100 to 200 |  |  | 10.6 ± 0.9 | 59.4 | Ulcer index [3, 10]: 4.1 ± 0.8 mm; inhibition in vivo at 10 mg/kg [3, 11]: 96.3% |
| CCCn1c(=O)c2c(ncn2CCCC(O)C(C)O)n(CC)c1=O (stereo not shown) [Compound 12] | > 200 |  |  | 4.3 ± 0.8 | 83.5 |  |
| CC(=O)Cn1cnc2c1c(=O)n(CCCCC(C)O)c(=O)n2C (stereo not shown) [Compound 23, 1-(5-Hydroxyhexyl)-3-methyl-7-(2-oxopropyl)-xanthine] | > 200 | 15.8 ± 4.6 | 19.8 |  |  |  |
| CCCn1c(=O)c2c(ncn2CCCCCC(O)CO)n(CC)c1=O (stereo not shown) [Compound 13] | 200 to 400 |  |  | 8.9 ± 2.1 | 66 | Ulcer index [3, 10]: 5.0 ± 2.2 mm; inhibition in vivo at 10 mg/kg [3, 11]: 95.5% |
| C=CCn1c(=O)c2c(ncn2CCCCC(O)CO)n(CC)c1=O (stereo not shown) [Compound 6, 1-Allyl-3-ethyl-7-(5,6-dihydroxyhexyl)-xanthine] | > 200 |  |  | 7.0 ± 0.9 | 73.2 | Ulcer index [3, 10]: 10.7 ± 1.4 mm; inhibition in vivo at 10 mg/kg [3, 11]: 90.4% |
| CCCn1cnc2c1c(=O)n(CCCCC(O)CO)c(=O)n2CC (stereo not shown) [Compound 14] |  |  |  | 10.4 ± 1.9 | 60.2 | LD50 at 168 h [1, 14]: 300 to 600 mg/kg |
| CCn1c(=O)n(CC(C)O)c(=O)c2c1ncn2CCCCC(O)CO (stereo not shown) [Compound 8, 3-Ethyl-7-(5,6-dihydroxyhexyl)-1-(2-hydroxypropyl)-xanthine] | > 200 |  |  | 20.7 ± 4.6 | 21 |  |
| CCCn1c(=O)c2c(ncn2CCCCC(C)O)n(C)c1=O (stereo not shown) [Compound 15] |  | 2.2 ± 0.9 | 88.9 |  |  | LD50 at 168 h ([1]; intravenous, method of LitchfieldWilcoxon using 10 mice/dose (footnote a)): 123 mg/kg |
| CC(=O)CCCCn1c(=O)c2c(ncn2C)n(C)c1=O [Compound 25, 1,2,3,6-tetrahydro-3,7-dimethyl-1-(5-oxohexyl)-purine-2,6-dione, reference compound] |  |  | 12.7 |  |  | inhibition in vivo at 10 mg/kg [3, 13]: 78.8%; antiulcer effects (in words) [4]: antiulcer effects |
| CC(=O)CCCCn1c(=O)c2c(ncn2CC(C)O)n(C)c1=O (stereo not shown) [Compound 20] | > 200 | 6.9 ± 2.1 | 65 |  |  |  |
| CCn1c(=O)c2c(ncn2CCCCC(C)=O)n(C)c1=O [Compound 22] |  | 8.0 ± 4.2 | 59 |  |  | LD50 at 168 h [1, 14]: 200 to 400 mg/kg |
| CC(=O)Cn1c(=O)c2c(ncn2CCCCC(C)O)n(C)c1=O (stereo not shown) [Compound 19, 7-(5-Hydroxyhexyl)-3-methyl-1-(2-oxopropyl)-xanthine] | > 200 |  |  | 15.0 ± 2.4 | 42.8 |  |
| CCCCCCn1c(=O)c2c(ncn2CCCCC(C)O)n(C)c1=O (stereo not shown) [Compound 17] |  |  |  |  |  | LD50 at 168 h [1, 14]: 500 to 1000 mg/kg; Ulcer index [3, 15]: 13.4 ± 5.2 mm; inhibition in vivo at 10 mg/kg [3, 15]: 88.7% |
| CC(=O)CCCCn1c(=O)c2c(ncn2CCCCC(O)CO)n(C)c1=O (stereo not shown) [Compound 11, 7-(5,6-dihydroxyhexyl)-3-methyl-1-(5-oxohexyl)-xanthine] | > 200 |  |  | 13.8 ± 1.7 | 47.4 |  |
| C=CCn1cnc2c1c(=O)n(CCCCC(C)O)c(=O)n2C (stereo not shown) [Compound 21, 7-allyl-1-(5-hydroxyhexyl)-3-methylxanthine] | 100 to 200 |  |  | 13.4 ± 3.2 | 48.9 |  |
| CCCn1c(=O)c2c(ncn2CCCCC(O)CO)n(CC)c1=O (stereo not shown) [Compound 1] |  | 2.7 ± 0.9 | 86.3 |  |  | toxicity (in words) [5]: low toxicity; Ulcer index [3, 12]: 6.7 ± 2.1 mm; inhibition in vivo at 10 mg/kg [3, 13]: 95.8% |
